Reference: patent US10414769B2, “5,8-dimethyl-9-phenyl-5,8-dihydro-6H-pyrazolo[3,4-h]quinazolin-2-yl)-(1H-pyrazol-3-yl)-amines as IGF-1R/IR inhibitors” (Boehringer Ingelheim International GmbH, priority 2015, dated 2019)

How the values were obtained:
[1] = test system: HCT 116 (colorectal carcinoma) cells; assay: Cell proliferation assay HCT 116 (Alamar Blue); format: cell-based; settings: Homo sapiens; anti-proliferative effect, HCT 116 cells (negative control line), 72 h
Method: (§1) Cell Proliferation Assays
(§2) Compounds were tested for their anti-proliferative effects in the TC-71 (EWING'S sarcoma) and HCT 116 (colorectal carcinoma) cancer cell lines in vitro. Published scientific data has described that interference with the IGF-1R signaling pathway reduces the proliferation of TC-71 cells (Manara et al, 2007). Therefore TC-71 cells served as a positive control cell line for monitoring the activity of compounds against IGF-1R-mediated cell proliferation. […] Therefore the HCT 116 cell line served as a negative control.
(§3) 2000 TC-71 cells or 1000 HCT 116 cells were seeded per well in 180 μL IMDM+10% foetal calf serum (FCS)+penicillin/streptomycin into 96-well microtitre plates. The plates were placed in a cell culture incubator (37° C. in a humidified atmosphere of […]/5% CO2) overnight. The following day, serial dilutions of compounds, prepared in duplicates, were transferred onto the cell layers (controls without compound). The cells were cultivated for a further 72 h in the cell culture incubator. 20 μL of Alamar Blue™ (Serotec Ltd, Dusseldorf, Germany) was added to each well and the plates incubated for 7 h in the cell culture incubator. Fluorescence (extinction wavelength of 544 nm and emission at 590 nm) was then measured and the normalized data fitted by iterative calculation with a sigmoidal curve analysis program (Graph Pad Prism) with a variable Hill slope to determine the EC50 values.

human IGF-1R = target: T1, human IGF-1R (Homo sapiens, UniProt P08069); assay: Insulin-like growth factor-1 receptor (IGF-1R)-kinase assay (DELFIA); format: biochemical; settings: inhibition of IGF-1R-kinase activity
T1 construct: human IGF-1R (amino acids 964-1370) is expressed as a fusion protein; made in house; host or cells: High Five insect cells (Invitrogen)
Method: Insulin-Like Growth Factor-1 Receptor (IGF-1R)-Kinase Assay
The kinase activity is measured by DELFIA® assay (dissociation-enhanced lanthanide fluorescence immunoassay, Perkin Elmer). The cytoplasmic kinase domain of human IGF-1R (amino acids 964-1370) is expressed as a fusion protein with a glutathione-S-transferase tag (IGF-1R-GST) in High Five™ Cells (Invitrogen). Enzyme activity is measured in the presence of substances and a control substance. Poly-glutamate-tyrosine peptide (pEY, Sigma Aldrich) and biotinylated pEY (bio-pEY) are used as reaction substrates.
10 μL of substance in 25% DMSO are mixed with 30 μL of IGF-1R-GST solution (67 mM HEPES pH 7.4, 15 μg/mL pEY, 1.7 μg/mL bio-pEY, 13.3 mM MgCl2, 3.3 mM dithiothreitol, 0.0033% Brij 35, 2 ng IGF-1R-GST) in 96-well plates. The reactions are started with 10 μL of a 750 μM ATP solution. After 40 min at RT the reactions are stopped with 50 μL of stop solution (250 mM EDTA, 20 mM HEPES pH 7.4). 90 μL from each reaction are transferred onto streptavidin-coated 96-well plates. After 120 min incubation at RT the plates are washed three times with 200 μL phosphate-buffered saline (PBS) per well. The plates are incubated for 60 min with 100 μL of europium-coupled antibody against phospho-tyrosine (diluted 1/2000 in Perkin Elmer DELFIA assay buffer) per well. The plates are washed three times with 200 μL per well of DELFIA washing buffer (Perkin Elmer). 100 μL DELFIA Enhancement Solution (Perkin Elmer) is added to each well, and the plates are incubated for 10 min. The fluorescence signal is measured with a Wallac Victor TRF Reader. IC50 values for the inhibition of the IGF-1R-kinase activity are calculated using the programme GraphPad (Version 3.0).

[2] = test system: TC-71 (EWING'S sarcoma) cells; assay: Cell proliferation assay TC-71 (Alamar Blue); format: cell-based; settings: anti-proliferative effect, TC-71 cells, 72 h; read-out: TC71 EC50
Method: as §1, §2, §3

T1 sequence (P08069 964-1367 limits assumed): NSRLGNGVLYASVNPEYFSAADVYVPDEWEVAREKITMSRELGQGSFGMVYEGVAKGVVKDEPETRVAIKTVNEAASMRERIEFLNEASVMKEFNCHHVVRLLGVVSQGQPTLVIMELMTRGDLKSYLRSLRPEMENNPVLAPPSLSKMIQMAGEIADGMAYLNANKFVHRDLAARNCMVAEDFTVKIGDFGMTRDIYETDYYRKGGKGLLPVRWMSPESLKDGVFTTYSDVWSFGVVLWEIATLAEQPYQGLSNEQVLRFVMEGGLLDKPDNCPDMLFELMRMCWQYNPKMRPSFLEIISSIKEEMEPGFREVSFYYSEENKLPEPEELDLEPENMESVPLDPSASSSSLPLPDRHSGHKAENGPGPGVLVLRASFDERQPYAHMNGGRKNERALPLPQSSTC

EC50 [1]	IC50 (human IGF-1R)	EC50 [2]	SMILES
> 2500 nM	1.5 nM	6.82 nM	CC(C(=O)OC[C@H]1CCCN1)N1CCN(CCn2ccc(Nc3ncc4c(n3)-c3c(nn(C)c3-c3ccccc3)C[C@H]4C)n2)CC1 (stereo partly drawn) [Compound I-4]
> 2500 nM	4.8 nM	4 nM	C[C@@H]1Cc2nn(C)c(-c3ccccc3)c2-c2nc(Nc3ccn(CCN4CCN(CC(C)(C)O)C(=O)C4)n3)ncc21 [Compound I-5]
> 2500 nM	1.1 nM	5 nM	C[C@@H]1Cc2nn(C)c(-c3ccccc3)c2-c2nc(Nc3ccn(CCN4CCN(CC(=O)OC5CCOC5)CC4)n3)ncc21 (stereo partly drawn) [Compound I-6]
> 2500 nM	2.2 nM	5.93 nM	C[C@@H]1Cc2nn(C)c(-c3ccccc3)c2-c2nc(Nc3ccn(CCN4CCN(CCO)CC4)n3)ncc21 [Compound I-10]
